Reference: PMC9103764, “Pilot Study on Acute Effects of Pharmacological Intraperitoneal L-Homoarginine on Homeostasis of Lysine and Other Amino Acids in a Rat Model of Isoprenaline-Induced Takotsubo Cardiomyopathy” (International Journal of Molecular Sciences, 2022)

Legend:
[1] = tested on: L-Arginine:glycine amidinotransferase (AGAT); assay: Equilibrium constants of the AGAT-catalyzed reactions calculated from free amino acid concentrations in rat organs; format: in vivo, Sprague-Dawley rats
[2] = set-up: method as in PMID 28710553; details: single i.p. hArg 20, 220, 440 mg/kg; cited from earlier work
[3] = set-up: method as in PMID 31776762; details: decarboxylation product of hArg; rat TTC model; cited from earlier work
[4] = oral hArg 125 mg/day, cited from earlier work
[5] = set-up: method as in PMID 24004504; details: cited from earlier work
[6] = tested on: arginase; set-up: method as in PMID 31028716; details: cited from earlier work
[7] = tested on: polyamine catabolism; assay: Putrescine:spermidine (PUT/SPD) molar ratio in organ homogenates; details: R17; hArg 440 mg/kg i.p.; 14 min; without isoprenaline
[8] = R1, hArg 440 mg/kg i.p., sacrifice 32 min, ISO 50 mg/kg i.p. at 15 min
[9] = R2, hArg 20 mg/kg i.p., sacrifice 64 min, ISO 50 mg/kg i.p. at 15 min
[10] = R3, hArg 20 mg/kg i.p., sacrifice 28 min, ISO 50 mg/kg i.p. at 15 min
[11] = R4, hArg 440 mg/kg i.p., sacrifice 87 min, ISO 50 mg/kg i.p. at 15 min
[12] = R13, hArg 20 mg/kg i.p., sacrifice 126 min, ISO 50 mg/kg i.p. at 15 min
[13] = R14, hArg 220 mg/kg i.p., sacrifice 108 min, ISO 50 mg/kg i.p. at 15 min
[14] = R17, hArg 440 mg/kg i.p., sacrifice 14 min, no ISO
[15] = R18, hArg 20 mg/kg i.p., sacrifice 114 min, ISO 50 mg/kg i.p. at 15 min
[16] = R19, hArg 220 mg/kg i.p., sacrifice 98 min, ISO 50 mg/kg i.p. at 15 min
[17] = hArg treatment, mice, dose-dependent

With `N=C(N)NCCCC[C@H](N)C(=O)O` [hArg, L-homoarginine] the “KhArg/KGAA ratio, kidney” value [1, 8] was 0.13, the “KhArg/KGAA ratio, lung” value [1, 8] was 6.8 and the “equilibrium constant KGAA, kidney” value [1, 8] was 1.83. The “equilibrium constant KGAA, lung” value [1, 8] was 0.06, the “equilibrium constant KhArg, kidney” value [1, 8] was 0.24 and the “equilibrium constant KhArg, lung” value [1, 8] was 0.40. The “KhArg/KGAA ratio, heart” value [1, 9] was 0.002, the “KhArg/KGAA ratio, kidney” value [1, 9] was 0.23 and the “KhArg/KGAA ratio, liver” value [1, 9] was 0.19. For the same molecule, the “KhArg/KGAA ratio, lung” value [1, 9] was 0.13, the “equilibrium constant KGAA, heart” value [1, 9] was 2.26 and the “equilibrium constant KGAA, kidney” value [1, 9] was 0.31. For the same molecule, the “equilibrium constant KGAA, liver” value [1, 9] was 0.09, the “equilibrium constant KGAA, lung” value [1, 9] was 0.023 and the “equilibrium constant KhArg, heart” value [1, 9] was 0.005. For the same molecule, the “equilibrium constant KhArg, kidney” value [1, 9] was 0.07, the “equilibrium constant KhArg, liver” value [1, 9] was 0.02 and the “equilibrium constant KhArg, lung” value [1, 9] was 0.003. For the same molecule, the “KhArg/KGAA ratio, heart” value [1, 10] was 0.001, the “KhArg/KGAA ratio, kidney” value [1, 10] was 0.16 and the “KhArg/KGAA ratio, liver” value [1, 10] was 0.35. The “KhArg/KGAA ratio, lung” value [1, 10] was 0.06, the “equilibrium constant KGAA, heart” value [1, 10] was 1.39 and the “equilibrium constant KGAA, kidney” value [1, 10] was 0.37. The “equilibrium constant KGAA, liver” value [1, 10] was 2.11, the “equilibrium constant KGAA, lung” value [1, 10] was 5.34 and the “equilibrium constant KhArg, heart” value [1, 10] was 0.002. The “equilibrium constant KhArg, kidney” value [1, 10] was 0.06, the “equilibrium constant KhArg, liver” value [1, 10] was 0.74 and the “equilibrium constant KhArg, lung” value [1, 10] was 0.31. The “KhArg/KGAA ratio, kidney” value [1, 11] was 2.18, the “KhArg/KGAA ratio, liver” value [1, 11] was 1.61 and the “KhArg/KGAA ratio, lung” value [1, 11] was 2.61. The “equilibrium constant KGAA, kidney” value [1, 11] was 0.53, the “equilibrium constant KGAA, liver” value [1, 11] was 12.6 and the “equilibrium constant KGAA, lung” value [1, 11] was 0.13. For the same molecule, the “equilibrium constant KhArg, kidney” value [1, 11] was 1.16, the “equilibrium constant KhArg, liver” value [1, 11] was 20.3 and the “equilibrium constant KhArg, lung” value [1, 11] was 0.34. For the same molecule, the “KhArg/KGAA ratio, heart” value [1, 12] was 0.43, the “KhArg/KGAA ratio, kidney” value [1, 12] was 0.006 and the “KhArg/KGAA ratio, liver” value [1, 12] was 0.31. The “KhArg/KGAA ratio, lung” value [1, 12] was 0.27, the “equilibrium constant KGAA, heart” value [1, 12] was 0.23 and the “equilibrium constant KGAA, kidney” value [1, 12] was 1.14. For the same molecule, the “equilibrium constant KGAA, liver” value [1, 12] was 2.45, the “equilibrium constant KGAA, lung” value [1, 12] was 0.07 and the “equilibrium constant KhArg, heart” value [1, 12] was 0.10. The “equilibrium constant KhArg, kidney” value [1, 12] was 0.007, the “equilibrium constant KhArg, liver” value [1, 12] was 0.76 and the “equilibrium constant KhArg, lung” value [1, 12] was 0.02. For the same molecule, the “KhArg/KGAA ratio, heart” value [1, 13] was 1.9, the “KhArg/KGAA ratio, kidney” value [1, 13] was 0.05 and the “KhArg/KGAA ratio, liver” value [1, 13] was 4.8. The “KhArg/KGAA ratio, lung” value [1, 13] was 1.13, the “equilibrium constant KGAA, heart” value [1, 13] was 0.20 and the “equilibrium constant KGAA, kidney” value [1, 13] was 1.32. The “equilibrium constant KGAA, liver” value [1, 13] was 1.07, the “equilibrium constant KGAA, lung” value [1, 13] was 0.03 and the “equilibrium constant KhArg, heart” value [1, 13] was 0.38. The “equilibrium constant KhArg, kidney” value [1, 13] was 0.06, the “equilibrium constant KhArg, liver” value [1, 13] was 5.16 and the “equilibrium constant KhArg, lung” value [1, 13] was 0.03. The “KhArg/KGAA ratio, heart” value [1, 14] was 3.8, the “KhArg/KGAA ratio, kidney” value [1, 14] was 0.07 and the “KhArg/KGAA ratio, liver” value [1, 14] was 6.7. The “KhArg/KGAA ratio, lung” value [1, 14] was 4.0, the “equilibrium constant KGAA, heart” value [1, 14] was 0.09 and the “equilibrium constant KGAA, kidney” value [1, 14] was 1.64. The “equilibrium constant KGAA, liver” value [1, 14] was 0.80, the “equilibrium constant KGAA, lung” value [1, 14] was 0.04 and the “equilibrium constant KhArg, heart” value [1, 14] was 0.33. For the same molecule, the “equilibrium constant KhArg, kidney” value [1, 14] was 0.12, the “equilibrium constant KhArg, liver” value [1, 14] was 5.38 and the “equilibrium constant KhArg, lung” value [1, 14] was 0.17. For the same molecule, the “KhArg/KGAA ratio, heart” value [1, 15] was 0.36, the “KhArg/KGAA ratio, kidney” value [1, 15] was 0.005 and the “KhArg/KGAA ratio, liver” value [1, 15] was 0.12. The “KhArg/KGAA ratio, lung” value [1, 15] was 0.12, the “equilibrium constant KGAA, heart” value [1, 15] was 0.31 and the “equilibrium constant KGAA, kidney” value [1, 15] was 1.94. For the same molecule, the “equilibrium constant KGAA, liver” value [1, 15] was 4.20, the “equilibrium constant KGAA, lung” value [1, 15] was 0.21 and the “equilibrium constant KhArg, heart” value [1, 15] was 0.11. The “equilibrium constant KhArg, kidney” value [1, 15] was 0.009, the “equilibrium constant KhArg, liver” value [1, 15] was 0.50 and the “equilibrium constant KhArg, lung” value [1, 15] was 0.03. For the same molecule, the “KhArg/KGAA ratio, kidney” value [1, 16] was 1.8, the “KhArg/KGAA ratio, liver” value [1, 16] was 2.0 and the “equilibrium constant KGAA, kidney” value [1, 16] was 0.35. For the same molecule, the “equilibrium constant KGAA, liver” value [1, 16] was 2.59, the “equilibrium constant KhArg, kidney” value [1, 16] was 0.62 and the “equilibrium constant KhArg, liver” value [1, 16] was 5.26. The “equilibrium constant KhArg, lung” value [1, 16] was 0.20, the “effect on citrullination (proteinic Cit) in organs” value (all organs, data not shown) was “independent of the hArg dose” and the “incorporation of pharmacological hArg into tissue proteins” value (rat, in vivo) was “no incorporation of pharmacological hArg into tissue proteins”. The “changes in nitrite and nitrate” value [2] was “marginal”, the “tissue homoagmatine (hAgm) concentration, median [interquartile range]” value [3] was 34.8 [4.6–270] nM and the effects on cognition ([4]; healthy humans) was “did not reveal any appreciable effects on cognition”. For the same molecule, the “increase of plasma Lys concentration compared to placebo” value ([4]; healthy young volunteers) was “about 8%”, the “pulse wave velocity, augmentation index, flow-mediated vasodilatation, corticospinal and cortical excitability” value ([4]; healthy young volunteers) was “without changes” and the infarct size [5, 17] was “decreased infarct sizes”. The neurological scores [5, 17] was “improved neurological scores”, the hArg plasma concentration ([5]; oral hArg, C57BL6 mice, versus vehicle-treated) was 0.20 ± 0.02 µM and the “substrate quality for arginase” value [6] was “poor substrate”. The “PUT/SPD molar ratio, heart” value [7] was 1.5, the “PUT/SPD molar ratio, kidney” value [7] was 0.86 and the “PUT/SPD molar ratio, liver” value [7] was 0.12. The “PUT/SPD molar ratio, lung” value [7] was 0.83.
